15 compounds from patent US20240300980A1, “HETEROCYCLIC COMPOUNDS AS KRAS INHIBITOR, AND PREPARATION THEREFOR AND USE THEREOF IN TREATMENT” (SHANGHAI KECHOW PHARMA, INC., priority 2021, published 2024) can be followed below.

In the assay the test system is AGS cells (KRAS^G12D). Put plainly: Detection of cell proliferation in vitro by MTT/MTS method (cell activity experiment). The conditions noted are these: Homo sapiens, AGS, 72 h, AGS cells; MTT/MTS; 3 days of drug treatment; read-out: AGS IC50. The assay is classed as cell-based. How it is done: The above cells were cultured in a complete medium containing 10% fetal bovine serum, 100 IU/mL penicillin and 100 jag/mL streptomycin, in the aseptic incubator with 95% relative humidity and 5% CO2 concentration.
2. Reagents: F12K, D-PBS, FBS, Penicillin Streptomycin, Tryple, MTT (5 mg/mL)
Appropriate amount of compound powder was weighed in a 1.5 mL centrifuge tube, then the corresponding volume of dimethyl sulfoxide (DMSO) was added to form a 20 mM reserve solution. The solution was packed separately and stored in a refrigerator at −20° C. away from light.
The cells were inoculated in a cell culture bottle, added an appropriate amount of complete medium, and cultured in a sterile incubator. When the degree of cell confluence reached more than 80%, subculture was carried out.
The adherent cells in logarithmic growth phase were digested by trypsin or the suspension cells were collected by centrifugation and counted. 90 μL cell suspension was inoculated into 96-well plate according to the cell inoculation density of 1000 cells per well, and 10 μL of 10-fold final concentration compound diluted by culture medium was added 24 hours later. Compared with the hole with the same volume of 5% DMSO as control, the final concentration of DMSO was 0.5%. After 3 days of drug treatment, the cell viability was detected by MTT. The specific methods are as follows: 10 μL MTT per well was added into the incubator for 4 hours, the supernatant was discarded and 150 μL DMSO was added to dissolve the crystal methylazan, and the absorbance of 490 nm was detected by enzyme labeling instrument, or 10 μL MITS per well was added to the incubator for 4 hours, and […] absorbance was detected directly by enzyme labeling instrument. GraphPad Prism 6 software makes dose-effect curve and calculates IC50.
As to `Cc1cc(N)nc(-c2ncc3c(N4C[C@H]5CC[C@@H](C4)N5)nc(OCC4(CN5CCCC5)CC4)nc3c2F)c1C(F)(F)F` [Example 8, 6-(4-((1R,5S)-3,8-diazabicyclo[3.2.1]octan-3-yl)-8-fluoro-2-((1-(pyrrolidin-1-ylmethyl)cyclopropyl)methoxy)pyrido[4,3-d]pyrimidin-7-yl)-4-methyl-5-(trifluoromethyl) pyridin-2-amine], the IC50 (commonly the point on the concentration scale where inhibition reaches its midpoint) was more than 1000 nM.
`Cc1cc(N)nc(-c2ncc3c(N4C[C@H]5CC[C@@H](C4)N5)nc(OCC4(CN5CCCC5)CC4)nc3c2F)c1C1CC1` [Example 9, 6-(4-((1R,5S)-3,8-diazabicyclo[3.2.1]octan-3-yl)-8-fluoro-2-((1-(pyrrolidin-1-ylmethyl)cyclopropyl)methoxy)pyrido[4,3-d]pyrimidin-7-yl)-5-cyclopropyl-4-methylpyridin-2-amine]: the IC50 is more than 1000 nM.
In the case of `Oc1cc(Cl)c(C2CC2)c(-c2ncc3c(N4C[C@H]5CC[C@@H](C4)N5)nc(OCC4(CN5CCCC5)CC4)nc3c2F)c1` [Example 10, 3-(4-((1R,5S)-3,8-diazabicyclo[3.2.1]octan-3-yl)-8-fluoro-2-((1-(pyrrolidin-1-ylmethyl)cyclopropyl)methoxy)pyrido[4,3-d]pyrimidin-7-yl)-5-chloro-4-cyclopropylphenol], the IC50 came to 17 nM.
In the case of `C#Cc1cccc2cc(O)cc(-c3ncc4c(N5C[C@H]6CC[C@@H](C5)O6)nc(OC[C@@]56CCCN5C[C@H](F)C6)nc4c3F)c12` [Example 11, 4-(4-((1R,5S)-8-oxa-3-azabicyclo[3.2.1]octan-3-yl)-8-fluoro-2-(((2R,7aS)-2-fluorotetrahydro-1H-pyrrolizin-7a(5H)-yl)methoxy)pyrido[4,3-d]pyrimidin-7-yl)-5-ethynylnaphthalen-2-ol], the IC50 came out at 390 nM.
Take `C#Cc1c(F)ccc2cc(O)cc(-c3ncc4c(N5C[C@H]6CC[C@@H](C5)O6)nc(OC[C@@]56CCCN5C[C@H](F)C6)nc4c3F)c12` [Example 12, 4-(4-((1R,5S)-8-oxa-3-azabicyclo[3.2.1]octan-3-yl)-8-fluoro-2-(((2R,7aS)-2-fluorotetrahydro-1H-pyrrolizin-7a(5H)-yl)methoxy)pyrido[4,3-d]pyrimidin-7-yl)-5-ethynyl-6-fluoronaphthalen-2-ol]: the IC50 was found to be 316 nM.
For `CCc1c(F)ccc2cc(O)cc(-c3ncc4c(N5C[C@H]6CC[C@@H](C5)O6)nc(OC[C@@]56CCCN5C[C@H](F)C6)nc4c3F)c12` [Example 13, 4-(4-((1R,5S)-8-oxa-3-azabicyclo[3.2.1]octan-3-yl)-8-fluoro-2-(((2R,7aS)-2-fluorotetrahydro-1H-pyrrolizin-7a(5H)-yl)methoxy)pyrido[4,3-d]pyrimidin-7-yl)-5-ethyl-6-fluoronaphthalen-2-ol], the IC50 amounted to 320 nM.
Under `CCc1cccc2cc(O)cc(-c3ncc4c(N5C[C@H]6CC[C@@H](C5)O6)nc(OC[C@@]56CCCN5C[C@H](F)C6)nc4c3F)c12` [Example 14, 4-(4-((1R,5S)-8-oxa-3-azabicyclo[3.2.1]octan-3-yl)-8-fluoro-2-(((2R,7aS)-2-fluorotetrahydro-1H-pyrrolizin-7a(5H)-yl)methoxy)pyrido[4,3-d]pyrimidin-7-yl)-5-ethylnaphthalen-2-ol] stands 330 nM; under `Oc1cc(-c2ncc3c(N4C[C@H]5CC[C@@H](C4)O5)nc(OC[C@@]45CCCN4C[C@H](F)C5)nc3c2F)c2c(F)cccc2c1` [Example 15, 4-(4-((1R,5S)-8-oxa-3-azabicyclo[3.2.1]octan-3-yl)-8-fluoro-2-(((2R,7aS)-2-fluorotetrahydro-1H-pyrrolizin-7a(5H)-yl)methoxy)pyrido[4,3-d]pyrimidin-7-yl)-5-fluoronaphthalen-2-ol], 320 nM.
Take `Oc1cc(-c2ncc3c(N4C[C@H]5CC[C@@H](C4)O5)nc(OC[C@@]45CCCN4C[C@H](F)C5)nc3c2F)c2c(F)c(F)ccc2c1` [Example 16, 4-(4-((1R,5S)-8-oxa-3-azabicyclo[3.2.1]octan-3-yl)-8-fluoro-2-(((2R,7aS)-2-fluorotetrahydro-1H-pyrrolizin-7a(5H)-yl)methoxy)pyrido[4,3-d]pyrimidin-7-yl)-5,6-difluoronaphthalen-2-ol]: the IC50 was determined as 315 nM.
On to `C#Cc1cccc2cc(O)cc(-c3ncc4c(N5C[C@H]6CC[C@@H](C5)S6)nc(OC[C@@]56CCCN5C[C@H](F)C6)nc4c3F)c12` [Example 20, 4-(4-((1R,5S)-8-thia-3-azabicyclo [3.2.1]octan-3-yl)-8-fluoro-2-(((2R, 7aS)-2-fluorotetrahydro-1H-pyrrolizin-7a(5H)-yl)methoxy)pyrido [4,3-d]pyrimidin-7-yl)-5-ethynylnaphthalen-2-ol], for which the IC50 came to 271 nM.
As to `C#Cc1c(F)ccc2cc(O)cc(-c3ncc4c(N5C[C@H]6CC[C@@H](C5)S6)nc(OC[C@@]56CCCN5C[C@H](F)C6)nc4c3F)c12` [Example 21, 4-(4-((1R,5S)-8-thia-3-azabicyclo[3.2.1]octan-3-yl)-8-fluoro-2-(((2R,7aS)-2-fluorotetrahydro-1H-pyrrolizin-7a(5H)-yl)methoxy)pyrido[4,3-d]pyrimidin-7-yl)-5-ethynyl-6-fluoronaphthalen-2-ol], the IC50 amounted to 269 nM.
On to `C#Cc1c(F)ccc2cc(O)cc(-c3ncc4c(N5CC6CCC(C5)[S+]6[O-])nc(OC[C@@]56CCCN5C[C@H](F)C6)nc4c3F)c12` (stereo partly drawn) [Example 22, (1R,5S,8R)-3-(7-(8-ethynyl-7-fluoro-3-hydroxynaphthalen-1-yl)-8-fluoro-2-(((2R,7aS)-2-fluorotetrahydro-1H-pyrrolizin-7a(5H)-yl)methoxy)pyrido [4,3-d]pyrimidin-4-yl)-8-thia-3-azabicyclo [3.2.1]octane 8-oxide], for which the IC50 came out at 3950 nM.
On to `C#Cc1c(F)ccc2cc(O)cc(-c3ncc4c(N5C[C@H]6CC[C@@H](C5)S6(=O)=O)nc(OC[C@@]56CCCN5C[C@H](F)C6)nc4c3F)c12` [Example 23, (1R,5S)-3-(7-(8-ethynyl-7-fluoro-3-hydroxynaphthalen-1-yl)-8-fluoro-2-(((2R, 7aS)-2-fluorotetrahydro-1H-pyrrolizin-7a(5H)-yl)methoxy)pyrido[4,3-d]pyrimidin-4-yl)-8-thia-3-azabicyclo[3.2.1] octane 8,8-dioxide], for which the IC50 amounted to 6950 nM.
For `CCc1c(F)ccc2cc(O)cc(-c3ncc4c(N5C[C@H]6CC[C@@H](C5)S6)nc(OC[C@@]56CCCN5C[C@H](F)C6)nc4c3F)c12` [Example 24, 4-(4-((1R,5S)-8-thia-3-azabicyclo[3.2.1]octan-3-yl)-8-fluoro-2-(((2R, 7aS)-2-fluorotetrahydro-1H-pyrrolizin-7a(5H)-yl)methoxy)pyrido[4,3-d]pyrimidin-7-yl)-5-ethyl-6-fluoronaphthalen-2-ol], the 50% inhibitory concentration (IC50) was found to be 280 nM.
With `CCc1cccc2cc(O)cc(-c3ncc4c(N5C[C@H]6CC[C@@H](C5)S6)nc(OC[C@@]56CCCN5C[C@H](F)C6)nc4c3F)c12` [Example 25, 4-(4-((1R,5S)-8-thia-3-azabicyclo[3.2.1]octan-3-yl)-8-fluoro-2-(((2R, 7aS)-2-fluorotetrahydro-1H-pyrrolizin-7a(5H)-yl)methoxy)pyrido[4,3-d]pyrimidin-7-yl)-5-ethylnaphthalen-2-ol], the IC50 was 290 nM.
